Legend:
MCF7 cells [1] = assay: Western blotting for apoptotic and DNA repair markers, MCF7; format: cell-based, human; settings: MCF7, 20 and 40 μM, about 24 h
Source text: PARP1 plays a major role in DNA damage induced apoptosis and is the main target of caspases.
Antibodies against Ki67 (cell proliferation), ATM, pATM, p53BP1, p21 (DNA repair), BID and Caspase 3 (apoptosis) are used. […] Green color indicates methyl green stained nuclei while brown indicates DNA breaks stained with diaminebenzidine, which is an indication of apoptosis. C. […] GAPDH is used as loading control.

[2] = target: T1, DNA binding domain (DBD) of Ligase IV (Homo sapiens, UniProt P49917); assay: CD spectroscopy, DBD of Ligase IV; settings: 200-260 nm
T1 construct: Ligase IV or DBD of Ligase IV alone is overexpressed, purified; made in house
T1 sequence (P49917 1-251 limits assumed): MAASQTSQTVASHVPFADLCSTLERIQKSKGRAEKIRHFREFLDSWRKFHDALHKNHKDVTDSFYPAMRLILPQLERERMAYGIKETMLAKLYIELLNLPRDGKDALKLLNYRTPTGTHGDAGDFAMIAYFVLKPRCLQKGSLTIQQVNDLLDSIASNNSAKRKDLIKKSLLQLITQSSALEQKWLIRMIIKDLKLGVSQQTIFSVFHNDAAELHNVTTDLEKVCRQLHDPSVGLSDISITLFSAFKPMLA
Method: (§1) A. Western blot analysis of KU70 and KU80 proteins in purified fractions. W is wash, 1, 2 and 3 are different fractions. B. Binding of KU proteins to DNA breaks. [−γ^32P]ATP end-labeled oligomeric DNA substrate containing DSB is incubated for about 30 min on ice with purified KU or Ligase IV/XRCC4 complex. For Ligase IV/XRCC4 supershift, first KU and DNA are incubated followed by addition of Ligase IV/XRCC4 (about 60 fmol). Reaction mixture is resolved on 1-6% native gradient PAGE. C. […] After preincubation of KU with DNA substrates, Ligase IV/XRCC4 complex (about 60 fmol) and increasing concentrations of inhibitor (10, 50, 100, 200, 500 and 700µM) are added, incubated and products are resolved on a gradient native PAGE. D-1 and D-2. […] CD spectra are obtained at a wavelength of 200-260 nm for […]

HeLa cells = assay: γH2AX foci immunofluorescence, HeLa; format: cell-based, human
MCF7 cells [3] = assay: γH2AX foci immunofluorescence, MCF7; format: cell-based, human; settings: MCF7, 24 h
Method: Cells are processed after about 24 h of treatment. In all panels, DMSO treated cells are used as control. Control and treated cells are fixed, permeabilized, blocked and incubated with anti-γH2AX primary antibody followed by incubation with appropriate biotinylated secondary antibody and strep-FITC. Propidium iodide is used as nuclear marker. Cells treated with secondary antibody alone served as negative control. Images are captured by Olympus DSU microscope. […] HeLa cells (about 2×10^5 cells/ml) are seeded and grown in serum free media for about 6 h. […] DMSO treated cells are used as control.
DMSO treated cells are used as control. DAPI is nuclear marker. Images are captured by Zeiss Confocal laser scanning microscope. B. Detection of DSBs by γH2AX foci formation in MCF7 cells following treatment with siRNA against Ligase I, Ligase III and Ligase IV. Scrambled siRNA is used as the control. […] Data shown are from three independent experiments and in each case, foci from a minimum of about 50 cells are counted. […] The relative length and intensity of propidium iodide stained DNA tails to heads is proportional to the amount of DNA damage present in individual nuclei. […] DMSO treated cells serve as vehicle control. In panels A, D, E and G, significance levels are indicated (ns: not significant, *p<0.05, **p<0.01, ***p<0.001).

K562 = assay: MTT assay, K562; format: cell-based; settings: Homo sapiens
Ligase IV = target: T2, Ligase IV (Homo sapiens, UniProt P49917); assay: CD spectroscopy, Ligase IV; format: binding; settings: 200-260 nm
T2 construct: made in house
T2 sequence (P49917 1-911): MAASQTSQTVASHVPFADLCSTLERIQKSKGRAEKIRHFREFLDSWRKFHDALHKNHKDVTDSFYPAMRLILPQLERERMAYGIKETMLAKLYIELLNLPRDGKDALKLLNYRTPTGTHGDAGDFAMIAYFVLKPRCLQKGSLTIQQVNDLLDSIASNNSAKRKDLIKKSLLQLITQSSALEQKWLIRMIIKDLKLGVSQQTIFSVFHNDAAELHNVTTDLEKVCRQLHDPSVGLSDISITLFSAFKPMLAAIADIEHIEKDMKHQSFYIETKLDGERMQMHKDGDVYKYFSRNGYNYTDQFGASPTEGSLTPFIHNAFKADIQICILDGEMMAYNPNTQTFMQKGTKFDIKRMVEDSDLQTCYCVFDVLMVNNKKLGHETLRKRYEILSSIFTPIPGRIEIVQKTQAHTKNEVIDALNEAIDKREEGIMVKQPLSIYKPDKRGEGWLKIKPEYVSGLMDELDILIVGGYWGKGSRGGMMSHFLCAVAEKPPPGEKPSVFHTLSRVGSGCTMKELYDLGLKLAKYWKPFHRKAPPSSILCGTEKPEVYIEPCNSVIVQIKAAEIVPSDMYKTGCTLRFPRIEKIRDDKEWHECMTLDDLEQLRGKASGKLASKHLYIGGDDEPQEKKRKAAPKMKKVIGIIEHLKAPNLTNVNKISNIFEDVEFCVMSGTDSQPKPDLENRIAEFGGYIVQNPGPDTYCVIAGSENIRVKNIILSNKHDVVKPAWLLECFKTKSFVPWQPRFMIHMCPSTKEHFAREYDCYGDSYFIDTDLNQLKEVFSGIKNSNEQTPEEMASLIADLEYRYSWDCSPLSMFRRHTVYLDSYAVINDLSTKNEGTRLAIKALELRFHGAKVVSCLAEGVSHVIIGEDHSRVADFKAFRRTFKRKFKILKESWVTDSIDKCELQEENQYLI
Method: as §1

CD spectrum of DBD upon addition of compound [2]: clear shift in the spectrum | IC50 (K562): > 100 µM | CD spectrum of Ligase IV upon addition of compound (Ligase IV): clear shift in the spectrum
Compound: Oc1nc(S)nc(/N=C/c2ccccc2)c1/N=C/c1ccccc1 [Compound 1, (5E,6E)-5,6-bis(benzylideneamino)-2-mercaptopyrimidin-4-ol]
Expression of BCL2 (MCF7 cells [1]): decreases | Levels of BAD (MCF7 cells [1]): remain unchanged | MDM2 (MCF7 cells [1]): concomitant decrease in MDM2 | PARP1 and Caspase 3 cleavage (MCF7 cells [1]): dose-dependent increase | Phosphorylation of ATM (MCF7 cells [1]): increase in phosphorylation | Precursor Caspase 9 (MCF7 cells [1]): Activation of precursor Caspase 9 | Proapoptotic proteins PUMA and BAX (MCF7 cells [1]): activation of proapoptotic proteins | Shorter fragment of MCL1 (MCF7 cells [1]): upregulated in a dose-dependent manner | p53 (MCF7 cells [1]): Activation of p53 | γH2AX foci (HeLa cells): increase in γH2AX foci in a concentration-dependent manner | γH2AX foci (MCF7 cells [3]): increase in γH2AX foci in a concentration-dependent manner
